{"source": "patent US7772183B2", "about": "(Bristol-Myers Squibb Company, priority 2005, dated 2010)", "key": {"[1]": {"molecular_target": "T1, HCV NS3/4A protease complex, BMS strain (UniProt P27958, species not given/STRAIN_BMS)", "T1 construct": "said of H77 and J4L6S; fused on or other part: A three-lysine solubilising tail at the C-terminus of NS4A and a His tag (pET21b, Ni-NTA purification)", "T1 sequence (P27958 1027-1657, change not shown, one chain of several)": "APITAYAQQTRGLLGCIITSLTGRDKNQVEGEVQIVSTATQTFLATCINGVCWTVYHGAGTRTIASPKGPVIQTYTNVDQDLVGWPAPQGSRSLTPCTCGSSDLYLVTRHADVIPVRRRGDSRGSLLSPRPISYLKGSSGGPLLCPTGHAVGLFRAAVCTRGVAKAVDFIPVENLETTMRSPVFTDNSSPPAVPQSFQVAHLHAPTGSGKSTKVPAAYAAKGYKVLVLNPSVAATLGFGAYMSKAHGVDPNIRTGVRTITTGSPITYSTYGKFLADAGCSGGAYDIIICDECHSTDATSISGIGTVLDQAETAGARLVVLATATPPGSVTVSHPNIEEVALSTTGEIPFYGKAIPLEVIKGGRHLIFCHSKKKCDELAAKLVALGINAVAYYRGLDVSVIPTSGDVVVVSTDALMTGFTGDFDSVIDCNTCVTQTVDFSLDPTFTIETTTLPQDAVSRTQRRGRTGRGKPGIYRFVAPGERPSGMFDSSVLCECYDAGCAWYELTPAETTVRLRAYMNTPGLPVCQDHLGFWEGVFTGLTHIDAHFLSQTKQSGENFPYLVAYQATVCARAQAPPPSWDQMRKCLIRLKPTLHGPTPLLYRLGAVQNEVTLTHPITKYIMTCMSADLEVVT", "assay": "FRET peptide assay to monitor HCV NS3/4A proteolytic activity (BMS strain)", "type": "biochemical, Hepatitis C virus (genotype 1a)", "details": "NS3/4A BMS strain; read-out: IC50 Range", "in_short": "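Recombinant NS3/4A complexes (aa 1027–1711) from H77 (1a) and J4L6S (1b) carried a three-lysine tail, C1711G and C1454S. They were expressed in E. coli BL21(DE3) (0.5 mM IPTG, 22 h, 20 °C), then purified by Ni-NTA and Superdex-S200 to >90% purity. The BMS strain was a genotype 1a clone from patient serum.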"}, "[2]": {"test_system": "HCV replicon in HUH-7 cells", "assay": "HCV replicon FRET assay", "type": "cell-based, Hepatitis C virus (strain 1b)", "details": "Hepatitis C virus, Huh-7; HCV replicon, for compounds tested; read-out: EC50 Range", "in_short": "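HUH-7 cells stably carrying a genotype 1b subgenomic HCV replicon (NS3–NS5B) treated with compound for 4 days at 37° C, 0.5% DMSO final. Cytotoxicity (CC50) read by alamar Blue; cells then lysed with 10 μM FRET HCV protease peptide substrate and kinetically read (340/490 nm) for EC50.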"}}}
{"smiles": "Cc1cc(C(=O)O[C@@H]2C[C@H]3C(=O)N[C@]4(C(=O)NS(=O)(=O)C5CC5)C[C@H]4/C=C\\CCCCC[C@H](NC(=O)OC(C)(C)C)C(=O)N3C2)n(C)n1", "note": "[Compound 35]", "values": [{"measurement": "IC50", "setting": "[1]", "value": "< 100", "unit": "nM"}, {"measurement": "EC50", "setting": "[2]", "value": "100 to 1000", "unit": "nM"}, {"measurement": "melting point", "value": "149 to 151", "unit": "°C"}]}
